Data: US20250326799A1, “AGENTS INDUCING VASCULARISATION” (Coegin Pharma AB, priority 2022, published 2025)
Entries after “also recorded” stand apart in the source; their conditions may differ.

What was measured:
[1] = system: Human umbilical cord endothelial cells (HUVECs); assay: BrdU cell proliferation in HUVECs; format: cell-based; conditions: for proliferation of human umbilical vascular endothelial cells (BrdU uptake): addition of the peptide, increasing concentration; for stimulation of endothelial cell proliferation (BrdU) after NRP-1 knock-down: HUVECs treated with siRNA-NC or siRNA for NRP-1, then peptide; for endothelial cell proliferation (DNA synthesis, uptake of BrdU, O.D. 450 nm): 10 nM, 100 nM, 1000 nM, compared to control
Method: (§1) Cell proliferation was evaluated with BrdU Cell Proliferation Elisa Kit (Abcam, UK). After incubation at 37° C. overnight with respective complete medium, for NRP-1 knock down-relative experiments, HUVECs and HCASMCs on 96-well plates were transfected with siRNA/siRNA-NC directly; for test polypeptide stimulations, HUVECs and HCASMCs were starved with low-serum condition for additional 24 hours and 48 hours before treatments. At 32 hours after transfection or polypeptide stimulations, cells were cultured with BrdU reagent for another 16 hours to determine cell proliferation. Subsequent steps were performed as manufacturer's instructions and data were read by Wallac 1420 Victor 2 (Perkin Elmer, USA).
For stimulation of endothelial cell proliferation, human umbilical cord endothelial cells were first treated with a scramble non-coding siRNA (NC) or siRNA for NRP-1, subsequently they were treated with FOL26 in concentrations of 10 nM, 100 nM, and 1000 nM, and DNA synthesis analyzed by measuring the uptake of BrdU.
The impact of FOL-026 peptide on human umbilical vascular endothelial cells (HUVECs) proliferation (FIG. 18a) and apoptosis (FIG. 18c) induced with low-oxygen condition was determined by BrdU uptake (n=8-9 per group) and active caspase-3/-7 (n=7-10 per group) separately. The ROS level (FIG. 18b) activated by 50 ug/ml oxidized Low-density Lipoprotein (oxLDL) for 2 hours in cells pre-incubated with FOL-026 peptides was assessed using H2O2 measurement (n=4-8 per group). Representative pictures of endothelial migration into an in vitro scratch injury were shown (FIG. 19a) and the wound closure rate (FIG. 19b) in HUVECs stimulated with increasing concentration of FOL-026 peptide was quantified by image J software (n=8-9 per group). Scale bar=150 um. Data are presented as means±SEM and acquired from 3 to 4 independent replicate tests. *P<0.05, **P<0.01, ****P<0.0001 by one-way ANOVA and Dunnett's post-hoc test.
The efficiency of small interfering RNA transfection for 48 hours in HUVECs was confirmed by qRT-PCR (n=4) (FIG. 22a). Effect of FOL-026 peptide stimulation on cell proliferation (FIG. 22b) and cell apoptosis at 0.1% oxygen (FIG. 22c) in HUVECs transfected with siRNA-NC or siNRP-1 was evaluated by BrdU incorporation (n=4-7 per group) and active caspase-3/-7 ((n=4-7 per group). Representative pictures of endothelial cells at 0 and 5 hours after scratch wounding are shown in 23a. The wound closure rate (FIG. 23b) of siRNA-NC/siNRP-1-transfected HUVECs stimulated with increasing concentration of FOL-026 peptide was quantified by image J software (n=9-12 per group). Scale bar=150 um. Data are presented as means±SEM and acquired from 3 to 4 independent replicate tests. *P<0.05, **P<0.01, ***P<0.001, ****P<0.0001 by Student's t test for A, two-way ANOVA followed with Sidak's and Dunnett's multiple comparisons test for B, C and E.
The endothelial cell proliferation (FIG. 29a) was assessed with BrdU uptake in human umbilical vascular endothelial cells (HUVECs) stimulated with increasing concentration of FOL-005 peptide for 48 hours (n=7-10 per group).

[2] = system: human coronary artery smooth muscle cells (HCASMCs); assay: BrdU cell proliferation in HCASMCs; format: cell-based; conditions: for smooth muscle cell proliferation (BrdU incorporation): addition of the peptide; for vascular smooth muscle cell proliferation (DNA synthesis, uptake of BrdU, O.D. 450 nm): 10 nM, 100 nM, 1000 nM, compared to control
Method: as §1
The effect of FOL-026 peptide treatment on smooth muscle cell proliferation (FIG. 25a) and apoptosis (FIG. 25c) induced with low-oxygen condition was evaluated with the uptake of BrdU (n=10 per group) and active caspase-3/-7 (n=6-8 per group) separately. H2O2 measurement (FIG. 25b) of smooth muscle cells pre-incubated with FOL-26 peptides after 50 ug/ml oxidized Low-density Lipoprotein (oxLDL) stimulation for 2 hours (n=6-7 per group). Representative images of scratch wound assay in vitro are shown (FIG. 26a) and the ability of wound healing (FIG. 26b) in human coronary smooth muscle cells (HCASMCs) treated with FOL-026 peptides was measured by image J software (n=10 per group). Scale bar=150 um. Data are presented as means±SEM and acquired from 3 to 4 independent replicate tests. *P<0.05, **P<0.01, ***P<0.001, ****P<0.0001 by one-way ANOVA and Dunnett's post-hoc test.
The effect of FOL-005 peptide on smooth muscle cell proliferation (FIG. 30a) was determined with BrdU incorporation in peptide-treated human coronary smooth muscle cells (HCASMCs). Scratch wound assay (FIG. 30b) of HCASMCs incubated with FOL-005 peptides for 5 hours was measured by image J software (n=10-12 per group) and representative pictures of smooth muscle cell migration into an in vitro scratch injury were shown (FIG. 30c). Scale bar=150 um.

Row | Sequence | proliferation of human umbilical vascular endothelial cells (BrdU uptake) ([1]; HUVECs) | smooth muscle cell proliferation (BrdU incorporation) [2] | stimulation of endothelial cell proliferation (BrdU) after NRP-1 knock-down [1] | stimulation of endothelial cell proliferation (BrdU) after NRP-1 knock-down ([1]; listed as FOL26) | endothelial cell proliferation (DNA synthesis, uptake of BrdU, O.D. 450 nm) ([1]; HUVECs, listed as FOL26) | BrdU uptake after siRNA for NRP-1 ([1]; HUVECs, 10 and 100 nM) | vascular smooth muscle cell proliferation (DNA synthesis, uptake of BrdU, O.D. 450 nm) ([2]; listed as FOL26) | endothelial cell proliferation (DNA synthesis, uptake of BrdU, O.D. 450 nm) ([1]; HUVECs) | vascular smooth muscle cell proliferation (DNA synthesis, uptake of BrdU, O.D. 450 nm) [2]
1 | VDTYDGDISVVYGLR [FOL-005] | increases | increases |  |  |  |  |  |  | 
2 | VDTYDGGISVVYGLR [FOL-026] | increases | induces smooth muscle cell proliferation | blocks the effect | NRP-1 dependent | significant increase in proliferation; also recorded: increase in O.D. (450 nm) | reduction | significant increase in proliferation; also recorded: increase in O.D. (450 nm) |  | 
3 | AEIDSIELSYGIK [FOL56] |  |  |  |  |  |  |  | significant increase in proliferation; also recorded: increases proliferation at all concentrations | significant increase in proliferation; also recorded: increases proliferation at all concentrations
